Test results from patent publication US5262522A, “Receptor for oncostatin M and leukemia inhibitory factor” (Immunex Corporation, priority 1991, dated 1993).

System: oncostatin M
Test: Oncostatin M binding assay (phthalate oil separation, Scatchard) on transfected COS-7 cells
Settings: cells preincubated with non-radiolabeled LIF before 125I-oncostatin M (curve B)
Text: Oncostatin M may be purified from cells in which the protein is naturally found, or from cells transformed with an expression vector encoding oncostatin M. One source of oncostatin M is phorbol ester-treated U937 cells, as described by Zarling et al., PNAS U.S.A. 83:9739 (1986). Purification of recombinant oncostatin M is described by Linsley et al., J. Biol. Chem. 264:4282-4289 (1989), which is hereby incorporated by reference in its entirety.
Oncostatin M may be radiolabeled using any suitable conventional procedure, such as the radioiodination procedure employed to radiolabel LIF in Example 1. The radio-iodination of oncostatin M has also been described by Linsley et al., supra.
The resulting radiolabeled oncostatin M may be substituted for radiolabeled LIF (using the same concentrations and other reaction parameters) in the assay procedures described in Example 1 in order to detect proteins and cells that bind oncostatin M. An assay for binding of ^125 I-oncostatin M to cells is also described in Linsley et al., supra.
COS-7 cells transfected with vector(s) encoding gp130 or LIF-R were assayed for the ability to bind oncostatin M. In separate transfections, COS-7 cells were transfected with the following combinations of vectors. […]

## gp130 and LIF-R: receptor of gp130 and LIF-R co-expressed on COS-7 cells co-transfected with vectors B10G and pHLIFR-65
  binding of oncostatin M after preincubation with LIF: did not bind oncostatin M in any measurable amount above that bound by the non-transfected COS-7 cells
